Patent US11091478B2 (Fochon Pharmaceuticals, Ltd., priority 2017, dated 2021)
Like-named read-outs stand apart in the source and are kept apart here.

Legend:
RS4;11 cells = assay: Cell proliferation assay (MTS), RS4;11 cells, 72 h; type: cell-based
How it was run: (§1)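 RS4;11 and DOHH2 cells at 5000 cells/well in RPMI-1640 with 10% FBS were treated with compound at 1.5–10000 nM final, nine points, at 37 °C, 5% CO2. Exposure was 72 h for RS4;11 and 120 h for DOHH2. MTS was added for 2 h, absorbance read at 490/650 nm, and IC50 calculated.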

DOHH2 cells = assay: Cell proliferation assay (MTS), DOHH2 cells, 120 h; type: cell-based
How it was run: as §1

COCC[C@@H]1CSc2cc(S(=O)(=O)NC(=O)c3ccc(N4CCN(CC5=C(c6ccc(Cl)cc6)CC(C)(C)CC5)CC4)cc3Oc3cnc4[nH]ccc4c3)cc([N+](=O)[O-])c2N1 [Example 3-12, (R)-2-((1H-pyrrolo[2,3-b]pyridin-5-yl)oxy)-4-(4-((4′-chloro-5,5-dimethyl-3,4,5,6-tetra-hydro-[1,1′-biphenyl]-2-yl)methyl)piperazin-1-yl)-N-((3-(2-methoxyethyl)-5-nitro-3,4-dihydro-2H-benzo[b][1,4]thiazin-7-yl)sulfonyl)benzamide]
IC50 (RS4;11 cells; Homo sapiens, RS4-11, 72 h): 84 nM | IC50 (DOHH2 cells; Homo sapiens, DOHH-2, 120 h): 120 nM

CC1(C)CCC(CN2CCN(c3ccc(C(=O)NS(=O)(=O)c4cc5c(c([N+](=O)[O-])c4)N[C@H](CS(C)(=O)=O)CO5)c(Oc4cnc5[nH]ccc5c4)c3)CC2)=C(c2ccc(Cl)cc2)C1 [Example 2-145, (S)-2-((1H-pyrrolo[2,3-b]pyridin-5-yl)oxy)-4-(4-((4′-chloro-5,5-dimethyl-3,4,5,6-tetra-hydro-[1,1′-biphenyl]-2-yl)methyl)piperazin-1-yl)-N-((3-((methylsulfonyl)methyl)-5-nitro-3,4-dihydro-2H-benzo[b][1,4]oxazin-7-yl)sulfonyl)benzamide]
IC50 (RS4;11 cells; Homo sapiens, RS4-11, 72 h): 1 nM | IC50 (DOHH2 cells; Homo sapiens, DOHH-2, 120 h): 87 nM

CC1(C)CCC(CN2CCN(c3ccc(C(=O)NS(=O)(=O)c4cc5c(c([N+](=O)[O-])c4)N[C@@H](CN4CCN(S(C)(=O)=O)CC4)CO5)c(Oc4cnc5[nH]ccc5c4)c3)CC2)=C(c2ccc(Cl)cc2)C1 [Example 2-95, (S)-2-((1H-pyrrolo[2,3-b]pyridin-5-yl)oxy)-4-(4-((4′-chloro-5,5-dimethyl-3,4,5,6-tetra-hydro-[1,1′-biphenyl]-2-yl)methyl)piperazin-1-yl)-N-((3-((4-(methylsulfonyl)piperazin-1-yl)methyl)-5-nitro-3,4-dihydro-2H-ben-zo[b][1,4]oxazin-7-yl)sulfonyl)benzamide]
IC50 (RS4;11 cells; Homo sapiens, RS4-11, 72 h): 45 nM | IC50 (DOHH2 cells; Homo sapiens, DOHH-2, 120 h): 19 nM

CC1(C)CCC(CN2CCN(c3ccc(C(=O)NS(=O)(=O)c4cc5c(c([N+](=O)[O-])c4)N[C@@H](CC4CCN(S(C)(=O)=O)CC4)CO5)c(Oc4cnc5[nH]ccc5c4)c3)CC2)=C(c2ccc(Cl)cc2)C1 [Example 2-196, (S)-2-((1H-pyrrolo[2,3-b]pyridin-5-yl)oxy)-4-(4-((4′-chloro-5,5-dimethyl-3,4,5,6-tetra-hydro-[1,1′-biphenyl]-2-yl)methyl)piperazin-1-yl)-N-((3-((1-(methysulfonyl)piperidin-4-yl)methyl)-5-nitro-3,4-dihydro-2H-benzo[b][1,4]oxazin-7-yl)sulfonyl)benzamide]
IC50 (RS4;11 cells; Homo sapiens, RS4-11, 72 h): 6 nM | IC50 (DOHH2 cells; Homo sapiens, DOHH-2, 120 h): 94 nM

CC[C@@H]1COc2cc(S(=O)(=O)NC(=O)c3ccc(N4CCN(CC5=C(c6ccc(Cl)cc6)CC(C)(C)CC5)CC4)cc3Oc3cnc4[nH]ccc4c3)cc([N+](=O)[O-])c2N1 [Example 2-107]
IC50 (RS4;11 cells; Homo sapiens, RS4-11, 72 h): 8 nM | IC50 (DOHH2 cells; Homo sapiens, DOHH-2, 120 h): 22 nM

CC1(C)CCC(CN2CCN(c3ccc(C(=O)NS(=O)(=O)c4cc5c(c([N+](=O)[O-])c4)N[C@H](CN4CCN(S(C)(=O)=O)CC4)CO5)c(Oc4cnc5[nH]ccc5c4)c3)CC2)=C(c2ccc(Cl)cc2)C1 [Example 2-90, (R)-2-((1H-pyrrolo[2,3-b]pyridin-5-yl)oxy)-4-(4-((4′-chloro-5,5-dimethyl-3,4,5,6-tetra-hydro-[1,1′-biphenyl]-2-yl)methyl)piperazin-1-yl)-N-((3-((4-(methylsulfonyl)piperazin-1-yl)methyl)-5-nitro-3,4-dihdyro-2H-ben-zo[b][1,4]oxazin-7-yl)sulfonyl)benzamide]
IC50 (RS4;11 cells; Homo sapiens, RS4-11, 72 h): 8 nM | IC50 (DOHH2 cells; Homo sapiens, DOHH-2, 120 h): 22 nM

CC1(C)CCC(CN2CCN(c3ccc(C(=O)NS(=O)(=O)c4cc5c(c([N+](=O)[O-])c4)N[C@H](Cc4ccccc4)CO5)c(Oc4cnc5[nH]ccc5c4)c3)CC2)=C(c2ccc(Cl)cc2)C1 [Example 2-156, (R)-2-((1H-pyrrolo[2,3-b]pyridin-5-yl)oxy)-N-((3-benzyl-5-nitro-3,4-dihdyro-2H-benzo[b][1,4]oxazin-7-yl)sulfonyl)-4-(4-((4′-chloro-5,5-dimethyl-3,4,5,6-tetrahydro-[1,1′-biphenyl]-2-yl)methyl)piperazin-1-yl)benza-mide]
IC50 (RS4;11 cells; Homo sapiens, RS4-11, 72 h): 19 nM | IC50 (DOHH2 cells; Homo sapiens, DOHH-2, 120 h): 6 nM

CC1(C)CCC(CN2CCN(c3ccc(C(=O)NS(=O)(=O)c4cc5c(c([N+](=O)[O-])c4)N[C@@H](CCN=S(C)(C)=O)CO5)c(Oc4cnc5[nH]ccc5c4)c3)CC2)=C(c2ccc(Cl)cc2)C1 [Example 2-43, (S)-2-((1H-pyrrolo[2,3-b]pyridin-5-yl)oxy)-4-(4-((4′-chloro-5,5-dimethyl-3,4,5,6-tetra-hydro-[1,1′-biphenyl]-2-yl)methyl)piperazin-1-yl)-N-((3-(2-((dimethyl(oxo)-l6-sulfanyl-idene)amino)ethyl)-5-nitro-3,4-dihydro-2H-benzo[b][1,4]oxazin-7-yl)sulfonyl)benza-mide]
IC50 (RS4;11 cells): 1 nM | IC50 (DOHH2 cells): 10 nM

CN1CCN(C[C@H]2Cc3cc(S(=O)(=O)NC(=O)c4ccc(N5CCN(CC6=C(c7ccc(Cl)cc7)CC(C)(C)CC6)CC5)cc4Oc4cnc5[nH]ccc5c4)cc([N+](=O)[O-])c3N2)CC1 [Example 1-7, (R)-2-((1H-pyrrolo[2,3-b]pyridin-5-yl)oxy)-4-(4-((4′-chloro-5,5-dimethyl-3,4,5,6-tetra-hydro-[1,1′-biphenyl]-2-yl)methyl)piperazin-1-yl)-N-((2-((4-methylpiperazin-1-yl)meth-yl)-7-nitroindolin-5-yl)sulfonyl)benzamide]
IC50 (RS4;11 cells; Homo sapiens, RS4-11, 72 h): 3 nM | IC50 (DOHH2 cells; Homo sapiens, DOHH-2, 120 h): 26 nM

CC1(C)CCC(CN2CCN(c3ccc(C(=O)NS(=O)(=O)c4cc5c(c([N+](=O)[O-])c4)N[C@@H](C4CCOCC4)CO5)c(Oc4cnc5[nH]ccc5c4)c3)CC2)=C(c2ccc(Cl)cc2)C1 [Example 2-187, (S)-2-((1H-pyrrolo[2,3-b]pyridin-5-yl)oxy)-4-(4-((4′-chloro-5,5-dimethyl-3,4,5,6-tetra-hydro-[1,1′-biphenyl]-2-yl)methyl)piperazin-1-yl)-N-((5-nitro-3-(tetrahydro-2H-pyran-4-yl)-3,4-dihydro-2H-benzo[b][1,4]oxazin-7-yl)sulfonyl)benzamide]
IC50 (RS4;11 cells; Homo sapiens, RS4-11, 72 h): 2 nM | IC50 (DOHH2 cells; Homo sapiens, DOHH-2, 120 h): 14 nM

CC(C)OC[C@H]1COc2cc(S(=O)(=O)NC(=O)c3ccc(N4CCN(CC5=C(c6ccc(Cl)cc6)CC(C)(C)CC5)CC4)cc3Oc3cnc4[nH]ccc4c3)cc([N+](=O)[O-])c2N1 [Example 2-237, (S)-2-((1H-pyrrolo[2,3-b]pyridin-5-yl)oxy)-4-(4-((4′-chloro-5,5-dimethyl-3,4,5,6-tetra-hydro-[1,1′-biphenyl]-2-yl)methyl)piperazin-1-yl)-N-((3-(isopropoxymethyl)-5-nitro-3,4-dihydro-2H-benzo[b][1,4]oxazin-7-yl)sulfonyl)benzamide]
IC50 (RS4;11 cells; Homo sapiens, RS4-11, 72 h): 14 nM | IC50 (DOHH2 cells; Homo sapiens, DOHH-2, 120 h): 3 nM

CC1(C)CCC(CN2CCN(c3ccc(C(=O)NS(=O)(=O)c4cc5c(c([N+](=O)[O-])c4)N[C@@H](CO)C5)c(Oc4cnc5[nH]ccc5c4)c3)CC2)=C(c2ccc(Cl)cc2)C1 [Example 1-11, (R)-2-((1H-pyrrolo[2,3-b]pyridin-5-yl)oxy)-4-(4-((4′-chloro-5,5-dimethyl-3,4,5,6-tetra-hydro-[1,1′-biphenyl]-2-yl)methyl)piperazin-1-yl)-N-((2-(hydroxymethyl)-7-nitroindolin-5-yl)sulfonyl)benzamide]
IC50 (RS4;11 cells; Homo sapiens, RS4-11, 72 h): 69 nM | IC50 (DOHH2 cells; Homo sapiens, DOHH-2, 120 h): 154 nM
